Columns and labels:
[1] = biological target: T1, Ribonucleoside Diphosphate Reductase (RdR) (Homo sapiens, UniProt P31350); test: Inhibition of ribonucleotide diphosphate reductase; assay type: biochemical
T1 sequence (P31350 1-389): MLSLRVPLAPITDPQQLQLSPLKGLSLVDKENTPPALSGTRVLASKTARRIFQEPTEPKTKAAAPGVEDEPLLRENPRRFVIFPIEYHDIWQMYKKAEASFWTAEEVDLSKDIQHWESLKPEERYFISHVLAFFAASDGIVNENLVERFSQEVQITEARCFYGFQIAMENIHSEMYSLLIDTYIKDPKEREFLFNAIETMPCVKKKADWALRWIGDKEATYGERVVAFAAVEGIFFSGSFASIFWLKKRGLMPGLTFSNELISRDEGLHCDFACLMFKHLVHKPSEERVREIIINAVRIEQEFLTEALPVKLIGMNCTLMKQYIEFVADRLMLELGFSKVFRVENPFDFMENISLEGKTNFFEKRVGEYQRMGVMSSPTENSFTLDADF

[2] = tested on: chloroquine-resistant strain of P. falciparum (FCR-3); settings: molar concentration 2 x 10⁻⁶; cultured 3 days
Experimental: Cultures of a chloroquine-resistant strain of P. falciparum (FCR-3), cultivated in human erythrocytes (a technique widely used at the Kuvin Centre, Hebrew University Hadassah Medical School), were suspended in solutions containing chelators and then cultured for 3 days. Growth of parasites was determined by either slide counts or by incorporation of ³H-hypoxanthine. The parasite growth was monitored by microscopic slide counts. […]

[3] = Fate of ⁵⁹Fe tracer incubated with chelator and injected into normal rats (radioiron distribution and excretion); assay type: in vivo; settings: for Radioiron Distribution in % Feces / Radioiron Distribution in % Total excretion / Radioiron Distribution in % Urine / Radioiron Distribution in % Blood / Radioiron Distribution in % Liver / Radioiron Distribution in % Spleen: 10 mg chelator with ⁵⁹Fe, subcutaneous, normal rats; for Radioiron Distribution in % Feces / Radioiron Distribution in % Total excretion / Radioiron Distribution in % Urine: cumulative within 4 days; for Radioiron Distribution in % Blood / Radioiron Distribution in % Liver / Radioiron Distribution in % Spleen: within 4 days; for TOTAL EXCRETION OF RADIO-IRON IN RATS %: as in Table 1
Experimental: Table 1 describes the fate of ⁵⁹Fe tracer reincubated […] with 10 mg of some of the above iron chelators and then injected subcutaneously to groups of 4 normal rats. Numbers represent mean cumulative radioiron excretion within 4 days of injection. For comparison, spontaneous excretion of radioiron and the excretion of desferrioxamine (DF) bound radioiron are also given. […]
Spleen and kidney were counted as whole organs.
(§1) The excretion of radioiron following ⁵⁹Fe labelling was measured in animals confined to solitary metabolic cages with stainless steel grid bottoms, and stool and urine were collected separately.

[4] = Mobilization of iron from hepatic parenchymal stores in hypertransfused rats labelled with ⁵⁹Fe-ferritin; assay type: in vivo; settings: for Ferritin-⁵⁹Fe distribution in % Blood / Ferritin-⁵⁹Fe distribution in % Feces / Ferritin-⁵⁹Fe distribution in % Liver / Ferritin-⁵⁹Fe distribution in % Residual / Ferritin-⁵⁹Fe distribution in % Spleen / Ferritin-⁵⁹Fe distribution in % Urine: hypertransfused rats, 40 mg per animal, single subcutaneous injection
Experimental: In each case, 40 mg of each compound was administered per animal in a single subcutaneous injection.
In vivo studies of chelating efficiency were performed in two models: (a) normal rats injected i.p. with 10 mg of either desferrioxamine B (DF), PIH of the prior art, PPH of Example 4 or PPHE from Example 5 labelled in vitro with ⁵⁹Fe; and (b) hypertransfused rats receiving twice 4 ml/100gm packed RBC intravenously 5 and 3 days prior to study (hematocrit 68%) and labelled with ⁵⁹Fe-ferritin injected i.v. 24h prior to iron chelating therapy as described previously. Drugs to be tested in the ⁵⁹Fe-ferritin model were given either by i.p. injection or by gastric tube at a dose of 40 mg per animal. Radioiron excretion and organ distribution were determined after 4 days
The radioactivity of spleen, weighed portions of the liver, and 1 ml samples of blood were determined in an automatic well type scintillation counter (Packard Autogamma Model 5360 Scintillation spectrometer). Spleen and kidney were counted as whole organs.
as §1, with “Whole body counts were performed in a small animal counter (Packard Model 446 Armac) scintillation detector. The” for “The”

[5] = tested on: Leukemia P 388; test: Leukemia P 388 survival in mice; assay type: in vivo, Mice: female B6D2F1; settings: days 1, 2, 3, 4
[6] = tested on: Lewis lung carcinoma; test: Inhibition of Lewis lung carcinoma (primary tumor and metastases); assay type: in vivo; settings: dose 25 mg/kg
From the text: It becomes possible also to look at the ability of one of the compounds (Ex. 1) to inhibit the growth of Lewis lung carcinoma. With a view to possible mechanisms we employed the well-established anti-cancer antibiotics (a) bleomycin, and (b) daunorubicin, as reference compounds.

[7] = Iron chelation in H₂O (spectrophotometric, apparent K), ferrous ions; assay type: physicochemical; settings: ferrous versus ferric

Compound	Inhibition of Ribonucleoside Diphosphate Reductase (RdR) % ([1]; dose 10 x 10⁻⁵ M)	INHIBITION OF GROWTH OF DRUG-RESISTANT STRAIN OF P. falciparum % INHIBITION [2] [%]	Radioiron Distribution in % Feces [3] [%]	Radioiron Distribution in % Total excretion [3] [%]	Radioiron Distribution in % Urine [3] [%]	Radioiron Distribution in % Blood [3] [%]	Radioiron Distribution in % Liver [3] [%]	Radioiron Distribution in % Spleen [3] [%]	TOTAL EXCRETION OF RADIO-IRON IN RATS % [3] [%]	Ferritin-⁵⁹Fe distribution in % Blood [4] [%]	Ferritin-⁵⁹Fe distribution in % Feces [4] [%]	Ferritin-⁵⁹Fe distribution in % Liver [4] [%]	Ferritin-⁵⁹Fe distribution in % Residual [4] [%]	Ferritin-⁵⁹Fe distribution in % Spleen [4] [%]	Ferritin-⁵⁹Fe distribution in % Urine [4] [%]	other results
1-[N-ethoxycarbonylmethyl pyridoxylidenium] 2-[2′-pyridyl] hydrazine bromide [Ex. 3]	none	90.9	57.2±1.1	86.7±1.7	29.5±0.6	6.4±0.4	3.3±0.4	0.16±0.04	86.7± 1.7	3.8±0.2	57.6±2.9	36.5±1.2	0	0.4±0.1	1.7±0.1	efficiency as compared to the parenteral administration of the same drug ([4]; oral 40 mg versus parenteral): 31%; effectiveness relative to DF on a weight per weight basis ([4]; rat, in vivo): 3 times
1-[N-methylpyridoxylidenium]-2-[methyl pyridiniumn] hydrazine hydroxido iodide [Ex. 2]	–	–	27.0±2.2	66.0±5.3	39.0±3.1	13.3±2.3	6.8±0.4	0.51±0.02	–	3.0±0.1	58.9±3.0	35.5±1.7	0	0.4±0.1	2.2±0.1	–
Cc1c(O)c(C=NNC(=O)c2cc[n+](C)cc2)c(CO)c[n+]1C.[I-].[I-] [Comparative Compound B, 1-[N-methylpyridoxylidenium]-2-[N′-isonicotinoylium] hydrazine dimethiodide, reference compound]	–	–	8.6±0.3	39.2±1.6	30.6±1.12	25.1±2.2	8.2±0.8	0.36±0.03	–	–	–	–	–	–	–	–
COc1cccc2c1C(=O)c1c(O)c3c(c(O)c1C2=O)C[C@@](O)(C(C)=O)C[C@@H]3O[C@H]1C[C@H](N)[C@H](O)[C@H](C)O1 [Daunorubicin, daunorubicin, reference compound]	–	–	–	–	–	–	–	–	–	–	–	–	–	–	–	Survivors on Day 20 ([5]; 1 mg/kg i.p.): 0/10; Activity T/C x 100 ([5]; 1 mg/kg i.p., mean survival time treated / controls): 154
Cc1ncc(CO)c(C=NNc2ccccn2)c1O [Ex. 1]	–	93.4	–	–	–	–	–	–	34.2	–	–	–	–	–	–	Inhibition of Ribonucleoside Diphosphate Reductase (RdR) % ([1]; dose 6.7 x 10⁻⁵ M (20 µg/ml)): 72%; Inhibition of Lewis Carcinoma Metastases % [6]: 41%; Inhibition of Lewis Carcinoma Primary Tumor % [6]: 0%; Activity T/C x 100 ([5]; 25 mg/kg i.p.): 105; Bodyweights Day 7-Day (g) ([5]; 25 mg/kg i.p.): +2.6 g; Survivors on Day 20 ([5]; 25 mg/kg i.p.): 0/5; Activity T/C x 100 ([5]; 37.5 mg/kg i.p.): 110; Bodyweights Day 7-Day (g) ([5]; 37.5 mg/kg i.p.): +0.2 g; Survivors on Day 20 ([5]; 37.5 mg/kg i.p.): 0/5; Bodyweights Day 7-Day (g) ([5]; 50 mg/kg i.p.): +0.8 g; Survivors on Day 20 ([5]; 50 mg/kg i.p.): 0/5; Activity T/C x 100 ([5]; 50 mg/kg i.p., P<0.05 (Mann-Whitney Test)): 126(xxx); Activity T/C x 100 ([5]; 75 mg/kg i.p.): Toxic^(xx); Bodyweights Day 7-Day ([5]; 75 mg/kg i.p.): -0.6 g; Survivors on Day 20 ([5]; 75 mg/kg i.p.): 0/5
Cc1ncc(CO)c(C=NNc2ncccn2)c1O [Ex. 4]	40%	–	–	–	–	–	–	–	–	–	–	–	–	–	–	Inhibition of Ribonucleoside Diphosphate Reductase (RdR) % ([1]; dose 1 x 10⁻⁵ M): 30%; Inhibition of Ribonucleoside Diphosphate Reductase (RdR) % ([1]; dose 100 x 10⁻⁵ M): 78%; higher affinity for ferrous than for ferric ions [7]: ~30 fold

— patent EP0315434A2, “Pyridoxal hydrazone derivatives their production and use and pharmaceutical compositions containing the same” (YISSUM RESEARCH DEVELOPMENT COMPANY OF THE HEBREW …, priority 1987, dated 1989)
